How the values were obtained:
[1] = molecular target: T1, Brd4 bromodomain 1 (BRD4(1)) (Homo sapiens, UniProt O60885); assay: Inhibition of tetra-acetylated histone H4 binding to Brd4 bromodomain 1 (TR-FRET); settings: tetra-acetylated histone H4 peptide, first bromodomain of Brd4
T1 construct: made in house; host or cells: E. coli BL21(DE3)
Method in brief: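 His-tagged BRD4(1) from E. coli (200 nM) with biotinylated tetra-acetylated H4 peptide (25-50 nM), Eu-cryptate streptavidin and XL665 anti-His, in HEPES pH 7.4/phosphate/KF buffer, 0.2% DMSO. After 2 h at room temperature, TR-FRET 665/620 nm ratio read; IC50 from dose-response curves.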

[2] = test system: c-myc; assay: Inhibition of c-myc expression (mRNA, real-time PCR) in MV4-11 cells; format: cell-based; settings: Human AML MV4-11 cells, 3 h, cMYC mRNA
Method in brief: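 MV4-11 cells treated 3 h at 37° C with increasing compound concentrations or 0.1% DMSO, in triplicate. cMYC mRNA quantified by one-step TaqMan real-time PCR, Ct normalized to internal control (Cyclophilin primers used), fold expression relative to control.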

[3] = test system: human AML MV-4-11 cells; assay: Inhibition of cell proliferation in MV4-11 cells (CellTiter Aqueous One); format: cell-based; settings: for Cell Proliferation activity: 72 h; for IC50: MV4-11, 72 h
Method in brief: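 Exponentially growing MV-4-11 cells (5×10^4/well) were treated immediately with two-fold dilutions of compound from 30 μM to 0.2 μM, in triplicate, for 72 h at 37° C, 5% CO2. Viability was measured by MTS absorbance at 490 nm after 3–4 h. Proliferation relative to DMSO after blank correction gave IC50.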

[4] = test system: hIL-6 mRNA; assay: Inhibition of hIL-6 mRNA transcription in LPS-stimulated U937 cells; format: cell-based; settings: Homo sapiens, U-937; PMA-differentiated U937 cells, 1 h pretreatment, 1 ug/mL LPS stimulation, 3 h; read-out: IL-6 activity (Inhibition of hIL-6 mRNA Transcription)
Description: In this example, hIL-6 mRNA in tissue culture cells was quantitated to measure the transcriptional inhibition of hIL-6 when treated with a compound of the invention.
Human leukemic monocyte lymphoma U937 cells (CRL-1593.2) were plated at a density of 3.2×10^4 cells per well in a 96-well plate in 100 μL RPMI-1640 containing 10% FBS and penicillin/streptomycin, and differentiated into macrophages for 3 days in 60 ng/mL PMA ([…]) at 37° C. in 5% CO2 prior to the addition of compound. The cells were pretreated for 1 h with increasing concentrations of test compound in 0.1% DMSO prior to stimulation with 1 ug/mL lipopolysaccharide from Escherichia coli. Triplicate wells were used for each concentration. The cells were incubated at 37° C., 5% CO2 for 3 h before the cells were harvested. At time of harvest, media was removed and cells were rinsed in 200 μL PBS. Cells were harvested using the mRNA Catcher PLUS kit according to manufacturer's instructions. The eluted mRNA was then used in a one-step quantitative real-time PCR reaction using components of the RNA UltraSense™ One-Step Kit (Life Technologies) together with Applied Biosystems TaqMan® primer-probes for hIL-6 and Cyclophilin. Real-time PCR plates were run on a VIa™ 7 real time PCR machine (Applied Biosystems), data was analyzed, normalizing the Ct values for hIL-6 to an internal control, prior to determining the fold expression of each sample, relative to the control.

IC50 [1] [µM] | IC50 [2] [µM] | IC50 [4] [µM] | IC50 [3] [µM] | SMILES | Cell Proliferation activity [3]
0.3 to 3 | 3 to 30 | 0.3 to 3 |  | Cc1noc(C)c1Cn1c(C)nc2ncc(-c3c(C)noc3C)cc21 [Example Compound 60, 4-((6-(3,5-dimethylisoxazol-4-yl)-2-methyl-1H-imidazo[4,5-b]pyridin-1-yl)methyl)-3,5-dimethylisoxazole] | Not active
≤ 0.3 | 0.3 to 3 | 0.3 to 3 | 0.3 to 3 | Cc1noc(C)c1-c1cnc2ccn(Cc3ccccc3)c2c1 [compound 71, 4-(1-benzyl-1H-pyrrolo[3,2-b]pyridin-6-yl)-3,5-dimethylisoxazole] | 
0.3 to 3 | 3 to 30 | 0.3 to 3 | 3 to 30 | Cc1noc(C)c1-c1cnc2c(c1)ncn2Cc1ccc(F)cc1 [Example Compound 44, 4-(3-(4-fluorobenzyl)-3H-imidazo[4,5-b]pyridin-6-yl)-3,5-dimethylisoxazole] | 
≤ 0.3 | 0.3 to 3 | 0.3 to 3 | 0.3 to 3 | Cc1noc(C)c1-c1cnc2nc(N3CCOCC3)n(Cc3ccccc3)c2c1 [compound 114, 4-(1-benzyl-6-(3,5-dimethylisoxazol-4-yl)-1H-imidazo[4,5-b]pyridin-2-yl)morpholine] | 
≤ 0.3 | 0.3 to 3 | ≤ 0.3 | 0.3 to 3 | Cc1noc(C)c1-c1cc(N)c2nc(C)n(CC3CCC3)c2c1 [compound 132, 1-(cyclobutylmethyl)-6-(3,5-dimethylisoxazol-4-yl)-2-methyl-1H-benzo[d]imidazol-4-amine] | 
≤ 0.3 | ≤ 0.3 | ≤ 0.3 | 0.3 to 3 | Cc1noc(C)c1-c1cnc2nc(N3CCOCC3)n(CC3CCCC3)c2c1 [compound 208, 4-(1-(cyclopentylmethyl)-6-(3,5-dimethylisoxazol-4-yl)-1H-imidazo[4,5-b]pyridin-2-yl)morpholine] | 
≤ 0.3 | 0.3 to 3 | 0.3 to 3 | 0.3 to 3 | Cc1noc(C)c1-c1cc(N(C)C)c2ncn(Cc3ccc(F)cc3)c2c1 [Example Compound 29, 6-(3,5-dimethylisoxazol-4-yl)-1-(4-fluorobenzyl)-N,N-dimethyl-1H-benzo[d]imidazol-4-amine] | 
≤ 0.3 | 0.3 to 3 | 0.3 to 3 | 3 to 30 | Cc1noc(C)c1-c1cc(C#N)c2[nH]c(=O)n(Cc3ccccc3)c2c1 [compound 86, 1-benzyl-6-(3,5-dimethylisoxazol-4-yl)-2-oxo-2,3-dihydro-1H-benzo[d]imidazole-4-carbonitrile] | 
≤ 0.3 | 0.3 to 3 | 0.3 to 3 | ≤ 0.3 | CCn1c(=O)n(Cc2ccccc2)c2cc(-c3c(C)noc3C)ccc21 [compound 122] | 
≤ 0.3 | ≤ 0.3 | ≤ 0.3 | 0.3 to 3 | Cc1noc(C)c1-c1cc(N)c2nc(NCc3ccccc3)n(Cc3ccccc3)c2c1 [compound 152, N2,1-dibenzyl-6-(3,5-dimethylisoxazol-4-yl)-1H-benzo[d]imidazole-2,4-diamine] | 
≤ 0.3 | ≤ 0.3 | ≤ 0.3 | ≤ 0.3 | CNc1nc2ncc(-c3c(C)noc3C)cc2n1Cc1ccccc1 [compound 146, 1-benzyl-6-(3,5-dimethylisoxazol-4-yl)-N-methyl-1H-imidazo[4,5-b]pyridin-2-amine] | 
≤ 0.3 | ≤ 0.3 | ≤ 0.3 | 0.3 to 3 | Cc1noc(C)c1-c1cnc2nc(NCCN3CCOCC3)n(Cc3ccccc3)c2c1 [compound 215, 1-benzyl-6-(3,5-dimethylisoxazol-4-yl)-N-(2-morpholinoethyl)-1H-imidazo[4,5-b]pyridin-2-amine] | 
0.3 to 3 | 0.3 to 3 | 0.3 to 3 | 0.3 to 3 | Cc1noc(C)c1-c1cc(CN)c2[nH]c(=O)n(Cc3ccccc3)c2c1 [Example Compound 22, 4-(aminomethyl)-1-benzyl-6-(3,5-dimethylisoxazol-4-yl)-1H-benzo[d]imidazol-2(3H)-one] | 
≤ 0.3 | 0.3 to 3 | 0.3 to 3 | 0.3 to 3 | Cc1noc(C)c1-c1cc(N)c2ncn(Cc3ccc(F)cc3)c2c1 [Example Compound 27, 6-(3,5-dimethylisoxazol-4-yl)-1-(4-fluorobenzyl)-1H-benzo[d]imidazol-4-amine] | 
≤ 0.3 | ≤ 0.3 | ≤ 0.3 | 0.3 to 3 | Cc1noc(C)c1-c1cnc2nc(N3CCC3)n(Cc3ccccc3)c2c1 [compound 123, 4-(2-(azetidin-1-yl)-1-benzyl-1H-imidazo[4,5-b]pyridin-6-yl)-3,5-dimethylisoxazole] | 
≤ 0.3 | 0.3 to 3 | ≤ 0.3 | ≤ 0.3 | Cc1noc(C)c1-c1cnc2nc(N3CCC3)n(CC3CCC3)c2c1 [compound 211, 4-(2-(azetidin-1-yl)-1-(cyclobutylmethyl)-1H-imidazo[4,5-b]pyridin-6-yl)-3,5-dimethylisoxazole] | 
≤ 0.3 | 3 to 30 | 0.3 to 3 |  | Cc1noc(C)c1-c1cc2c(c(C)nn2Cc2ccc(F)cc2)[n+]([O-])c1 [Example Compound 24, 6-(3,5-dimethylisoxazol-4-yl)-1-(4-fluorobenzyl)-3-methyl-1H-pyrazolo[4,3-b]pyridine-4-oxide] | Not active
≤ 0.3 | 0.3 to 3 | 0.3 to 3 | 3 to 30 | Cc1noc(C)c1-c1cnc2ccn(Cc3ccc(F)cc3)c2c1 [Example Compound 48, 4-(1-(4-fluorobenzyl)-1H-pyrrolo[3,2-b]pyridin-6-yl)-3,5-dimethylisoxazole] | 
≤ 0.3 | 0.3 to 3 | 0.3 to 3 | 0.3 to 3 | Cc1noc(C)c1-c1cnc2nc(C)n(Cc3ccc(Cl)cc3)c2c1 [compound 83, 4-(1-(4-chlorobenzyl)-2-methyl-1H-imidazo[4,5-b]pyridin-6-yl)-3,5-dimethylisoxazole] | 
≤ 0.3 | 0.3 to 3 | 0.3 to 3 | 0.3 to 3 | Cc1noc(C)c1-c1cnc2c(Cl)cn(Cc3ccccc3)c2c1 [compound 89, 4-(1-benzyl-3-chloro-1H-pyrrolo[3,2-b]pyridin-6-yl)-3,5-dimethylisoxazole] | 
0.3 to 3 | 3 to 30 | 3 to 30 | 3 to 30 | Cc1noc(C)c1-c1cnc2c(c1)ncn2Cc1ccc(Cl)cc1 [Example Compound 42, 4-(3-(4-chlorobenzyl)-3H-imidazo[4,5-b]pyridin-6-yl)-3,5-dimethylisoxazole] | 
≤ 0.3 | ≤ 0.3 | ≤ 0.3 | ≤ 0.3 | Cc1noc(C)c1-c1cnc2nc(NC3CCCC3)n(Cc3ccccc3)c2c1 [compound 214, 1-benzyl-N-cyclopentyl-6-(3,5-dimethylisoxazol-4-yl)-1H-imidazo[4,5-b]pyridin-2-amine] | 
≤ 0.3 | 0.3 to 3 | 0.3 to 3 | 0.3 to 3 | CC(=O)Nc1cn(Cc2ccccc2)c2cc(-c3c(C)noc3C)cnc12 [compound 99, N-(1-benzyl-6-(3,5-dimethylisoxazol-4-yl)-1H-pyrrolo[3,2-b]pyridin-3-yl)acetamide] | 
≤ 0.3 | 0.3 to 3 | 0.3 to 3 | 0.3 to 3 | Cc1noc(C)c1-c1cnc2[nH]c(=O)n(CC3CC3)c2c1 [compound 118, 1-(cyclopropylmethyl)-6-(3,5-dimethylisoxazol-4-yl)-1H-imidazo[4,5-b]pyridin-2(3H)-one] | 

SMILES | IC50 [1] [µM] | IC50 [2] [µM] | IC50 [4] [µM] | IC50 [3] [µM] | Cell Proliferation activity [3]
Cc1noc(C)c1-c1cnc2c(C=O)cn(Cc3ccccc3)c2c1 [Example Compound 35, 1-benzyl-6-(3,5-dimethylisoxazol-4-yl)-1H-pyrrolo[3,2-b]pyridine-3-carbaldehyde] | ≤ 0.3 | 0.3 to 3 | 0.3 to 3 | 0.3 to 3 | 
